Data as given in the supplement of paper PMC11208160.

Assay: recombinant UMI read abundance after kanamycin selection (control-corrected) (log10(CPM+1)); higher = more efficient recombination; extreme values may be limits of the assay; sequences stand for … in AGTGCAGAGAAAATCGGCCAGTTTTCTCTGCCTGCAGTCCGCATGCCGTGGGACCCCTTGGGTTCTAACCTGTTGCCTAGATTTATGCAGCGGACTGCCTTTCTCCCAAAGTGATAAACCGG…AGGTTGGTTTCACT; site = the 11-nt donor
Method in brief: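 Pooled Escherichia coli screen of donor and donor-binding-loop pairs for the IS621 bridge recombinase. Each pair sits with a 12-nt UMI on a plasmid carrying a promoterless kanamycin gene. The library was co-electroporated with a target plasmid encoding a fixed target and T7-inducible recombinase, then plated with IPTG (0.07 mM) plus kanamycin, or unselected, each in two replicates. Recombinant UMIs were PCR-amplified across the donor–target junction and sequenced. Counts became CPM, averaged over replicates, scaled by control-derived factors and reported as log10(CPM+1).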
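Note: IS621 bridge recombinase in Escherichia coli cells against a fixed T5 target plasmid.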

| Sequence | recombinant UMI read abundance (log10) |
| --- | --- |
| TCCACCGCATGGACCGGTTTTCCCGGTAATCCGTATTTGTG (site TCCACCGCTCA) | 0.0465 |
| TCCACCGCATGGACCGGTTTTCCCGGTAATCCGTATTTGTG (site TCCACCGCTCC) | 0.00628 |
| TCCACCGCATGGACCGGTTTTCCCGGTAATCCGTATTTGTG (site TCCACCGCTCG) | 0.00762 |
| TCCACCGCATGGACCGGTTTTCCCGGTAATCCGTATTTGTG (site TCCACCGCTCT) | 0.0682 |
| TCCACTGCATGGACCGGTTTTCCCGGTAATCCGTATTTGCG (site TCCACAGCTCG) | 0 |
| TCCACTGCATGGACCGGTTTTCCCGGTAATCCGTATTTGCG (site TCCACCGCTCG) | 0 |
| TCCACTGCATGGACCGGTTTTCCCGGTAATCCGTATTTGCG (site TCCACGGCTCG) | 0.00658 |
| TCCACTGCATGGACCGGTTTTCCCGGTAATCCGTATTTGCG (site TCCACTGCTCG) | 0.0111 |
| TCCAGCACATGGACCGGTTTTCCCGGTAATCCGTATTTGTG (site TCCAGCACTCA) | 0.0248 |
| TCCAGCGCATGGACCGGTTTTCCCGGTAATCCGTATTTGCG (site TCCAACGCTCG) | 0 |
| TCCAGCGCATGGACCGGTTTTCCCGGTAATCCGTATTTGCG (site TCCACCGCTCG) | 0.0119 |
| TCCAGCGCATGGACCGGTTTTCCCGGTAATCCGTATTTGCG (site TCCAGCGCTCG) | 0.0428 |
| TCCAGCGCATGGACCGGTTTTCCCGGTAATCCGTATTTGCG (site TCCATCGCTCG) | 0.00909 |
| TCCAGTTCATGGACCGGTTTTCCCGGTAATCCGTATTTGCC (site TCCAATTCTGG) | 0 |
| TCCAGTTCATGGACCGGTTTTCCCGGTAATCCGTATTTGCC (site TCCACTTCTGG) | 0 |
| TCCAGTTCATGGACCGGTTTTCCCGGTAATCCGTATTTGCC (site TCCAGTTCTGG) | 0 |
| TCCAGTTCATGGACCGGTTTTCCCGGTAATCCGTATTTGCC (site TCCATTTCTGG) | 0 |
| TCCATAACATGGACCGGTTTTCCCGGTAATCCGTATTTGGG (site TCCATAACTCC) | 0.008 |
| TCCATGCCATGGACCGGTTTTCCCGGTAATCCGTATTTGAT (site TCCATGCCTAT) | 0 |
| TCCATTCCATGGACCGGTTTTCCCGGTAATCCGTATTTGAT (site TCCATTCCTAT) | 0 |
| TCCCATACATGGACCGGTTTTCCCGGTAATCCGTATTTGCG (site TCCCATACTCG) | 0.00752 |
| TCCCATTCATGGACCGGTTTTCCCGGTAATCCGTATTTGCC (site TCCAATTCTGG) | 0 |
| TCCCATTCATGGACCGGTTTTCCCGGTAATCCGTATTTGCC (site TCCCATTCTGG) | 0 |

| Sequence | recombinant UMI read abundance (log10) |
| --- | --- |
| TCCCATTCATGGACCGGTTTTCCCGGTAATCCGTATTTGCC (site TCCGATTCTGG) | 0 |
| TCCCATTCATGGACCGGTTTTCCCGGTAATCCGTATTTGCC (site TCCTATTCTGG) | 0 |
| TCCCCAACATGGACCGGTTTTCCCGGTAATCCGTATTTGTT (site TCCCCAACTAA) | 0.0153 |
| TCCCGCTCATGGACCGGTTTTCCCGGTAATCCGTATTTGCC (site TCCCGCTCTGG) | 0 |
| TCCCTGACATGGACCGGTTTTCCCGGTAATCCGTATTTGGA (site TCCCTGACTTC) | 0.0122 |
| TCCGATTCATGGACCGGTTTTCCCGGTAATCCGTATTTGAG (site TCCGATTCTCT) | 0.00583 |
| TCCGATTCATGGACCGGTTTTCCCGGTAATCCGTATTTGCC (site TCCAATTCTGG) | 0 |
| TCCGATTCATGGACCGGTTTTCCCGGTAATCCGTATTTGCC (site TCCCATTCTGG) | 0 |
| TCCGATTCATGGACCGGTTTTCCCGGTAATCCGTATTTGCC (site TCCGATTCTGG) | 0 |
| TCCGATTCATGGACCGGTTTTCCCGGTAATCCGTATTTGCC (site TCCTATTCTGG) | 0 |
| TCCGCAGCATGGACCGGTTTTCCCGGTAATCCGTATTTGAA (site TCCGCAGCTTT) | 0.0198 |
| TCCGCATCATGGACCGGTTTTCCCGGTAATCCGTATTTGGG (site TCCGCATCTCC) | 0.00533 |
| TCCGCGACATGGACCGGTTTTCCCGGTAATCCGTATTTGTA (site TCCGCGACTTA) | 0.0159 |
| TCCGCTACATGGACCGGTTTTCCCGGTAATCCGTATTTGTC (site TCCGCTACTGA) | 0 |
| TCCGGGCCATGGACCGGTTTTCCCGGTAATCCGTATTTGGG (site TCCGGGCCTCC) | 0.0269 |
| TCCTACGCATGGACCGGTTTTCCCGGTAATCCGTATTTGAA (site TCCTACGCTTT) | 0.0256 |
| TCCTACTCATGGACCGGTTTTCCCGGTAATCCGTATTTGCA (site TCATACTCTTG) | 0 |
| TCCTACTCATGGACCGGTTTTCCCGGTAATCCGTATTTGCA (site TCCTACTCTTG) | 0 |
| TCCTACTCATGGACCGGTTTTCCCGGTAATCCGTATTTGCA (site TCGTACTCTTG) | 0 |
| TCCTACTCATGGACCGGTTTTCCCGGTAATCCGTATTTGCA (site TCTTACTCTTG) | 0 |
| TCCTAGGCATGGACCGGTTTTCCCGGTAATCCGTATTTGGT (site TACTAGGCTAC) | 0.0272 |
| TCCTAGGCATGGACCGGTTTTCCCGGTAATCCGTATTTGGT (site TCCTAGGCTAC) | 0.0125 |
| TCCTAGGCATGGACCGGTTTTCCCGGTAATCCGTATTTGGT (site TGCTAGGCTAC) | 0.0178 |

| Sequence | recombinant UMI read abundance (log10) |
| --- | --- |
| TCCTAGGCATGGACCGGTTTTCCCGGTAATCCGTATTTGGT (site TTCTAGGCTAC) | 0.0363 |
| TCCTGCCCATGGACCGGTTTTCCCGGTAATCCGTATTTGCT (site TCCTGCCCTAG) | 0 |
| TCCTGGCCATGGACCGGTTTTCCCGGTAATCCGTATTTGTG (site TCCTGGCCTCA) | 0.00405 |
| TCCTGTTCATGGACCGGTTTTCCCGGTAATCCGTATTTGTC (site TCCTGTTCTGA) | 0 |
| TCCTTCTCATGGACCGGTTTTCCCGGTAATCCGTATTTGGG (site ACCTTCTCTCC) | 0.0101 |
| TCCTTCTCATGGACCGGTTTTCCCGGTAATCCGTATTTGGG (site CCCTTCTCTCC) | 0.00366 |
| TCCTTCTCATGGACCGGTTTTCCCGGTAATCCGTATTTGGG (site GCCTTCTCTCC) | 0.104 |
| TCCTTCTCATGGACCGGTTTTCCCGGTAATCCGTATTTGGG (site TCCTTCTCTCC) | 0.0162 |
| TCCTTTACATGGACCGGTTTTCCCGGTAATCCGTATTTGTT (site TCCTTTACTAA) | 0.0163 |
| TCGAACGCATGGACCGGTTTTCCCGGTAATCCGTATTTGCG (site TCGAACGCTCG) | 0.00434 |
| TCGAAGACATGGACCGGTTTTCCCGGTAATCCGTATTTGCA (site AGGAAGACTTG) | 0.13 |
| TCGAAGACATGGACCGGTTTTCCCGGTAATCCGTATTTGCA (site TCGAAGACTTG) | 1.88 |
| TCGAATACATGGACCGGTTTTCCCGGTAATCCGTATTTGCA (site TAGAATACTTG) | 0.211 |
| TCGAATACATGGACCGGTTTTCCCGGTAATCCGTATTTGCA (site TCGAATACTTG) | 0 |
| TCGAATACATGGACCGGTTTTCCCGGTAATCCGTATTTGCA (site TGGAATACTTG) | 0.0214 |
| TCGAATACATGGACCGGTTTTCCCGGTAATCCGTATTTGCA (site TTGAATACTTG) | 0 |
| TCGAATCCATGGACCGGTTTTCCCGGTAATCCGTATTTGAG (site TCGAATCCTCT) | 0.516 |
| TCGACACCATGGACCGGTTTTCCCGGTAATCCGTATTTGGA (site TCGACACCTTC) | 0.0336 |
| TCGACTTCATGGACCGGTTTTCCCGGTAATCCGTATTTGTG (site TCGACTTCTCA) | 0 |
| TCGATTACATGGACCGGTTTTCCCGGTAATCCGTATTTGGA (site TCGATTACTTC) | 0.277 |
| TCGCACACATGGACCGGTTTTCCCGGTAATCCGTATTTGCG (site TCGCACACTCG) | 0.00409 |
| TCGCCTACATGGACCGGTTTTCCCGGTAATCCGTATTTGTG (site TCGCCTACTCA) | 0.00919 |
